Experimental data: US11866430B2, “Naphthyridinone compounds useful as T cell activators” (priority 2018, dated 2024)
Read-outs that look alike come from different tables or passages of the source.

Key:
[1] = test system: naïve human CD8 T cells; assay: CellTiter-Glo CD8 T Cell Proliferation Assay; type: cell-based; settings: Homo sapiens, T-cell, CellTiter-Glo CD8 T cell proliferation, normalized; read-out: CD8 GLO normalized EC50
[2] = test system: Human venous whole blood; assay: Human Whole Blood IFN-γ Assay; type: cell-based
Protocol: Human venous whole blood (22.5 μL per well), obtained from healthy donors, was pre-treated with compounds for one hour at 37° C. in a humidified 95% air/5% CO2 incubator. The blood was stimulated with 2.5 μL anti-human CD3 and anti-CD28 mAb at a final concentration of 1 μg/mL each for 24 hours at 37° C. IFN-γ in the supernatants was measured using AlphaLISA kit (Cat #AL217).

[3] = target: human DGKα (Homo sapiens (Human), UniProt P23743); assay: biochemical; settings: detergent/lipid micelle substrate; read-out: DGKα IC50
Summary of the method: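 Full-length human DGKζ (and DGKα), C-terminal His-tagged, Sf9-expressed, with phosphatidylserine/DAG micelles in 50 mM octyl glucoside; buffer 50 mM MOPS pH 7.5, 100 mM NaCl, 10 mM MgCl2, 1 μM CaCl2, 1 mM DTT.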

[4] = test system: pre-activated CD4 T cells and Raji cells; assay: Raji CD4 T Cell IL2 Assay; type: cell-based
[5] = test system: naïve human CD8 T cells; assay: cells; settings: Homo sapiens, T-cell, read-out: HuCD8 INFG Normalized EC50, anti-CD3 plus anti-CD28 as baseline; 3 μM Example 40 co-stimulation as 100% activation
Summary of the method: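 Thawed frozen cells, 40,000/well, stimulated on plate-bound anti-CD3 (coated at 0.05 μg/mL) plus soluble anti-CD28 0.1 μg/mL; compounds added immediately after plating. After 20 h at 37° C., supernatant IFN-γ quantitated by AlphaLISA, counts converted to IFN-γ concentration […].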

[6] = Homo sapiens, human whole blood, anti-CD3 plus anti-CD28 as baseline, 3 μM Example 40 co-stimulation as 100% activation, read-out: INF-γ Whole Blood Normalized Agonist EC50
[7] = Homo sapiens, read-out: INF-γ Whole Blood Agonist EC50

Sequence of human DGKα (P23743 other isoform, or with tags, fused parts or gaps): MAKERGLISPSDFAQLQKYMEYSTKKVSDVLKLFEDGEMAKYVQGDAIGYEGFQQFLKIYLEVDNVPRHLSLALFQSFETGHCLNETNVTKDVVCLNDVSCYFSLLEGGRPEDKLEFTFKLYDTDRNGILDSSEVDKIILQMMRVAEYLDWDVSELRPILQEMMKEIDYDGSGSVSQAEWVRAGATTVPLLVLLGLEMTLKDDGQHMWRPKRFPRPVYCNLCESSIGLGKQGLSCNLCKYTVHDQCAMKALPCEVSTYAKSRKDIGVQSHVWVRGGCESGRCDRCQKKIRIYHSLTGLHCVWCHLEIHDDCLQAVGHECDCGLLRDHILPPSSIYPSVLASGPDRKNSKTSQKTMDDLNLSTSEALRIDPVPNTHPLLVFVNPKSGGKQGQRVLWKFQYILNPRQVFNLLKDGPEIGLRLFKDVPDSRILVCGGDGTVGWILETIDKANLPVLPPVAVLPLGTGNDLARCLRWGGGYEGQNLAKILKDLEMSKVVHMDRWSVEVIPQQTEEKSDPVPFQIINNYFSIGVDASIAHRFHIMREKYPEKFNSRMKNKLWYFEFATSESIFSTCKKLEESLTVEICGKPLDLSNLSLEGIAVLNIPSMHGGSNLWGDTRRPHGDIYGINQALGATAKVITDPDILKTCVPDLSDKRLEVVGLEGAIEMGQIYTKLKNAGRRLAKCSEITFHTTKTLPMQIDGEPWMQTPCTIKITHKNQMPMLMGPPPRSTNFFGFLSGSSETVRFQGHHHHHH

SMILES | EC50 [1] [µM] | EC50 [2, 6] [µM] | IC50 [3] [µM] | IC50 [4] [µM] | EC50 [5] [µM] | EC50 [2, 7] [µM] | EC50 ([2]; human whole blood, anti-CD3 plus anti-CD28 as baseline, 3 μM Example 40 co-stimulation as 100% activation, read-out: INF-γ Whole Blood Normalized Agonist EC50) [µM] | IC50 ([4]; Homo sapiens, Raji) [µM]
COc1ccc2c(n1)c(N1CCN(C(c3ccc(F)cc3)c3ccc(F)cc3OC)CC1)c(C#N)c(=O)n2C (racemic) [Example 412, 4-{4-[(4-fluoro-2-methoxyphenyl)(4-fluorophenyl)methyl]piperazin-1-yl}-6-methoxy-1-methyl-2-oxo-1,2-dihydro-1,5-naphthyridine-3-carbonitrile] | 0.3 | 3.01 |  |  |  |  |  | 
COc1ccccc1C(c1ccc(F)cc1)N1CCN(c2c(C#N)c(=O)n(C)c3ccc(Br)nc23)CC1 (single isomer, unassigned) [Example 13, 6-bromo-4-{4-[(4-fluorophenyl)(2-methoxyphenyl)methyl]piperazin-1-yl}-1-methyl-2-oxo-1,2-dihydro-1,5-naphthyridine-3-carbonitrile] |  | 5 | 9.5 | > 100 | 10 |  |  | 
COc1cc(F)ccc1C(c1ccc(F)cc1)N1CCN(c2c(C#N)c(=O)n(C)c3ccc(Br)nc23)CC1 (single isomer, unassigned) [Example 17, 6-bromo-4-{4-[(4-fluoro-2-methoxyphenyl)(4-fluorophenyl)methyl]piperazin-1-yl}-1-methyl-2-oxo-1,2-dihydro-1,5-naphthyridine-3-carbonitrile] |  | 1.15 | 0.93 |  | 0.52 | 0.67 |  | 
CC(c1ccc(F)cc1)N1CCN(c2c([N+](=O)[O-])c(=O)n(C)c3ccc(C#N)nc23)CC1 (single isomer, unassigned) [Example 44, 8-(4-(1-(4-fluorophenyl)ethyl)piperazin-1-yl)-5-methyl-7-nitro-6-oxo-5,6-dihydro-1,5-naphthyridine-2-carbonitrile] |  | 0.9 | 0.23 |  | 0.18 |  |  | 
COc1cc(F)ccc1C(c1ccc(F)cc1)N1CCN(c2c([N+](=O)[O-])c(=O)n(C)c3ccc(C#N)nc23)CC1 (single isomer, unassigned) [Example 124, 8-(4-((4-fluoro-2-methoxyphenyl)(4-fluorophenyl)methyl)piperazin-1-yl)-5-methyl-7-nitro-6-oxo-5,6-dihydro-1,5-naphthyridine-2-carbonitrile] | 0.02 | 0.1 | 0.75 |  | 0.01 | 0.14 |  | 
C#CCn1c(=O)c([N+](=O)[O-])c(N2CCN(C(C)c3ccc(F)cc3)CC2)c2nc(C#N)ccc21 (single isomer, unassigned) [Example 137, 8-(4-(1-(4-fluorophenyl)ethyl)piperazin-1-yl)-7-nitro-6-oxo-5-(prop-2-yn-1-yl)-5,6-dihydro-1,5-naphthyridine-2-carbonitrile] |  |  | 0.28 |  | 0.04 |  | 5 | 
Cc1ccc(CN2CCN(c3c(C#N)c(=O)n(C)c4ccc(Cl)nc34)CC2)cc1 [Example 386, 6-chloro-1-methyl-4-{4-[(4-methylphenyl)methyl]piperazin-1-yl}-2-oxo-1,2-dihydro-1,5-naphthyridine-3-carbonitrile] |  | 1.24 | 0.15 |  | 0.96 |  |  | 
Cc1ccc(CN2CCN(c3c(C#N)c(=O)n(C)c4ccc(Cl)nc34)CC2)c(F)c1 [Example 423, 6-chloro-4-{4-[(2-fluoro-4-methylphenyl)methyl]piperazin-1-yl}-1-methyl-2-oxo-1,2-dihydro-1,5-naphthyridine-3-carbonitrile] |  | 10 | 1.4 |  | 0.46 |  |  | > 100
Cn1c(=O)c(C#N)c(N2CCN(C(C)(C)c3ccc(F)cc3)CC2)c2nc(Cl)ccc21 [Example 425, 6-chloro-4-{4-[2-(4-fluorophenyl)propan-2-yl]piperazin-1-yl}-1-methyl-2-oxo-1,2-dihydro-1,5-naphthyridine-3-carbonitrile] | 0.19 | 10 | 1.8 |  |  |  |  | > 100
